Patent US5773228A, “Activation-dependent protein expressed on the surface of activated platelets and antibodies thereto” (The General Hospital Corporation, priority 1995, dated 1998)

Test system: platelets (TAPP-2 expression)
Experiment: Expression of TAPP-2 on platelets stimulated by different agonists (binding of 125I-MAb 12A7)
Type: cell-based, rabbit
Conditions: compared to resting platelets, 10 minutes at room temperature
Experimental: Platelets were incubated with various agonists, with or without Ca^2+ or EDTA and then fixed by paraformaldehyde. The fixed platelets were washed and incubated with ^125 I-MAb 12A7 (50,000 cpm), with or without unlabeled MAb 12A7 (0.5 ug) added as an inhibitor to estimate nonspecific binding. After 45 min. the platelet samples were again washed, spun, and aspirated. The platelet pellet was counted to determine the amount of bound MAb 12A7.
Equilibrium saturation binding studies were conducted in a similar manner. Platelets activated by thrombin (0.15 U/ml) were incubated in duplicate with various amounts of ^125 I-MAb 12A7 (1,000,000 to 6,250 cpm) in a total volume of 200 μl. Each tube also contained a molar excess (>100-fold) of a control, anti-digoxin MAb, of the same isotype (Mudgett-Hunter et al., Mol. Immunol. 22:477-488 (1985)), which was added to inhibit nonspecific binding of ^125 I-MAb 12A7 to platelets via Fc receptors. To estimate nonspecific binding, a molar excess (>100-fold) of nonradioactive MAb 12A7 was added to one set of tubes. After incubation for 45 minutes at room temperature 2 ml of cold Tyrode's buffer was added, the tubes were centrifuged at 3000 ×g for 10 minutes and the unbound ^125 I-12A7 MAb was removed. The bound antibody was measured by gamma counting in Micro-Medics 4/600 counter. To study the binding of MAb 12A7 to resting platelets a similar procedure was performed except that the number of platelets had to be increased to 1.29×10^8 cells in a total incubation volume of 400 μl. The platelets were incubated with various amounts of MAb 12A7 (2,000,000 to 25,000 cpm) as above. The binding data was analyzed by the Ligand program of Munson and Rodbard, Anal. Biochem. 107:220-239 (1980)). […] The binding of 12A7 to platelets stimulated by different agonists was also studied. Platelets were isolated as described above. Platelets (5×10^6 cells/40 Kl) in modified Tyrode's (without divalent cations) were added to plastic tubes. […] After 45 minutes the platelet samples were again washed, spun, aspirated and gamma-counted.

CNc1ccc2oc(C[C@H]3O[C@@]4(CC[C@H]3C)O[C@H]([C@H](C)C(=O)c3ccc[nH]3)[C@H](C)C[C@H]4C)nc2c1C(=O)O [A23187]
TAPP-2 expression as indicated by the binding of 125I-MAb 12A7 (A23187 2 μM): notable increase

Nc1ncnc2c1ncn2[C@@H]1O[C@H](COP(=O)(O)OP(=O)(O)O)[C@@H](O)[C@H]1O [ADP]
TAPP-2 expression as indicated by the binding of 125I-MAb 12A7 (ADP 10 μM): notable increase

CNC[C@H](O)c1ccc(O)c(O)c1 [epinephrine]
TAPP-2 expression as indicated by the binding of 125I-MAb 12A7 (epinephrine 2 μM): little, if any, effect
